Data on four compounds can be found in the NIST ThermoML archive (doi:10.1016/j.fluid.2005.11.020).

“And” between values parts separate entries of the source, which are not always exact repeats. Equal values may be shown once. Numbers after ± are expanded uncertainties.

For this data set the following is noted: Liquid; for mass density: 293.2 K, 101.33 kPa, Vibrating tube method; for vapor or sublimation pressure: Ebulliometric method (Recirculating still).

A word on the mass density: it is mass per unit of volume. One may read the vapor or sublimation pressure as the equilibrium pressure above the liquid or solid. For `Brc1ccccc1` [bromobenzene], the mass density is given as 1495.28 ± 0.48 kg/m3. In addition, the “vapor or sublimation pressure” value (428.8 K) was 100.91 ± 1 kPa.
Take `Clc1ccccc1` [chlorobenzene]: the mass density is given as 1106.07 ± 0.3 kg/m3. Besides, the “vapor or sublimation pressure” value (404.6 K) is reported as 100.82 ± 1 kPa.
On to `Fc1ccccc1` [fluorobenzene], for which the mass density is recorded as 1022.27 ± 0.27 kg/m3. In addition, the “vapor or sublimation pressure” value (357.5 K) came to 100.55 ± 1 kPa.
With `CCCCCCC` [heptane], the mass density is 683.53 ± 0.27 kg/m3. Besides, the “vapor or sublimation pressure” value (371.3 K) was 100.91 ± 1 kPa and 100.6 ± 1 kPa. Where the note is “371.4 K”, the “vapor or sublimation pressure” value worked out at 100.95 ± 1 kPa.
